Article PMC7822874, “Chemoprotective antimalarials identified through quantitative high-throughput screening of Plasmodium blood and liver stage parasites” (Scientific Reports, 2021)
Read-outs that look alike come from different tables or passages of the source.

Legend:
[1] = system: P. berghei-ANKA-GFP-LucCON liver stage parasites in HepG2-A16-CD81EGFP cells; assay: P. berghei liver stage Pb-Luc assay, Method 1 (UCSD, 1536-well); type: cell-based, Plasmodium berghei; conditions: Plasmodium berghei, 48 h, average of 2 wells, 1536-well plate; for activity at 1 µM: nominal 1 uM (10 mM stock), […] for 15 mM, 1.2 uM for 12 mM, 2 uM for 20 mM stock; for activity at 3 µM: nominal 3 uM (10 mM stock), 4.5 uM for 15 mM, 3.6 uM for 12 mM, 6 uM for 20 mM stock; on all read-outs here: reference of the scale not given here
[2] = system: Plasmodium falciparum Dd2 asexual blood stage parasites; assay: microbe, parasite or virus in culture; set-up: species or system Plasmodium falciparum Dd2 in human erythrocytes; single determination (one 11-point concentration-response curve); conditions: Plasmodium falciparum, DD2, Erythrocyte, 72 h; read-out: AC50
HepG2-A16-CD81EGFP cells = conditions: average of 2 wells, repeat 2; for HepG2 viability signal, 1 uM, repeat 2: nominal 1 uM (10 mM stock), […] for 15 mM, 1.2 uM for 12 mM, 2 uM for 20 mM stock; for HepG2 viability signal, 3 uM, repeat 2: nominal 3 uM (10 mM stock), 4.5 uM for 15 mM, 3.6 uM for 12 mM, 6 uM for 20 mM stock
in vitro = conditions: human, HepG2-A16-CD81EGFP cells, uninfected
[3] = repeat 1, read-out: Pb-Luc signal, 1 uM, repeat 1
[4] = repeat 2, read-out: Pb-Luc signal, 1 uM, repeat 2
[5] = repeat 3, read-out: Pb-Luc signal, 1 uM, repeat 3
[6] = repeat 1, read-out: Pb-Luc signal, 3 uM, repeat 1
[7] = repeat 2, read-out: Pb-Luc signal, 3 uM, repeat 2
[8] = repeat 3, read-out: Pb-Luc signal, 3 uM, repeat 3

Row | Structure (SMILES) | activity at 1 µM [1, 3] | activity at 1 µM [1, 4] | activity at 1 µM [1, 5] | activity at 3 µM [1, 6] | activity at 3 µM [1, 7] | activity at 3 µM [1, 8] | AC50 [2] | HepG2 viability signal, 1 uM, repeat 2 (HepG2-A16-CD81EGFP cells) | HepG2 viability signal, 3 uM, repeat 2 (HepG2-A16-CD81EGFP cells) | viability at 48 h, 1 µM (in vitro) | viability at 48 h, 3 µM (in vitro)
1 | CCOC(=O)c1ccc2c(c1)[C@@H]1C=CC[C@@H]1[C@H](c1cccc(OC)c1OC)N2 [NCGC00100279-01] | 74.5% | 94.6% | 122% | 60.1% | 74.5% | 64.8% | 2660 nM | 100.32% | 102.96% | 97.9% | 105%
2 | CC1CCCN(Cc2c(O)ccc3c(=O)c(-c4ccccc4Cl)c(C(F)(F)F)oc23)C1 (centres unmarked) [NCGC00100585-01] | 99.2% | 115% | 106% | 62.6% | 101% | 122% | 841 nM | 105.16% | 104.39% | 108% | 112%
3 | CC(C)c1ccccc1Oc1c(C(F)(F)F)oc2c(CN3CCN(C)CC3)c(O)ccc2c1=O [NCGC00100597-01] | 104% | 108% | 80.4% | 67.9% | 95.1% | 69.5% | 668 nM | 96.39% | 99.40% | 101% | 102%
4 | CCN1CCN(Cc2c(O)ccc3c(=O)c(Oc4ccccc4C(C)C)c(C(F)(F)F)oc23)CC1 [NCGC00100599-01] | 78.6% | 113% | 135% | 70% | 89.4% | 121% | 596 nM | 96.13% | 100.51% | 97.5% | 99.2%
5 | CCCOC(=O)c1c(NC(=O)C(C)Sc2nc(-c3ccccc3)cc(C(F)(F)F)n2)sc(C(=O)N(C)C)c1C (centres unmarked) [NCGC00101274-01] | 94.7% | 104% | 101% | 61.7% | 98.3% | 113% | 1680 nM | 104.19% | 103.13% | 98.8% | 100%
6 | CCN1CCN(Cc2c(O)ccc3c(=O)c(Oc4ccccc4Cl)c(C(F)(F)F)oc23)CC1 [NCGC00101484-01] | 88.6% | 66% | 90.1% | 93.5% | 101% | 77.7% | 596 nM | 99.03% | 97.39% | 99.8% | 94.1%
7 | CCc1ccc(Oc2c(C(F)(F)F)oc3c(CN4CCN(CC)CC4)c(O)ccc3c2=O)cc1 [NCGC00101506-01] | 82.1% | 87.1% | 67% | 64.2% | 90% | 40.1% | 376 nM | 92.46% | 94.20% | 92.4% | 95.7%
8 | CCOC(=O)c1ccc(NC2=CC(c3ccc(O)c(OCC)c3)N(c3ccc(C(=O)OCC)cc3)C2=O)cc1 (centres unmarked) [NCGC00102600-01] | 107% | 140% | 101% | 117% | 126% | 113% | 3350 nM | 100.94% | 102.23% | 98.6% | 101%
9 | Cc1ccc(C)c(Cn2c(=O)n(CCCCC(=O)NCc3ccc4c(c3)OCO4)c(=O)c3ccccc32)c1 [NCGC00106276-01] | 69% | 120% | 109% | 132% | 95.7% | 87.2% | 6680 nM | 102.61% | 103.78% | 99.1% | 93.3%
10 | CN1CCN(C(=O)c2ccc3c(c2)N(Cc2ccc(C(F)(F)F)cc2)C(=O)c2ccccc2S3)CC1 [NCGC00108242-01] | 104% | 123% | 103% | 91% | 99.2% | 92.4% | 531 nM | 102.88% | 103.88% | 99.8% | 101%
11 | CCN1CCN(C(=O)c2ccc3c(c2)N(Cc2ccc(Cl)cc2)C(=O)c2ccccc2[S+]3[O-])CC1 (centres unmarked) [NCGC00109464-01] | 104% | 92.1% | 102% | 83.2% | 80.5% | 103% | 668 nM | 105.55% | 102.35% | 110% | 108%
12 | CCN1CCN(C(=O)c2ccc3c(c2)N(Cc2ccccc2F)C(=O)c2ccccc2[S+]3[O-])CC1 (centres unmarked) [NCGC00109528-01] | 102% | 105% | 110% | 94.3% | 116% | 97.6% | 841 nM | 95.20% | 97.54% | 101% | 98.8%
13 | Cc1ccc2oc(=O)c3cnn(CC(=O)Nc4cccc(C(F)(F)F)c4)c3c2c1 [NCGC00110933-01] | 106% | 124% | 113% | 86.9% | 117% | 100% | 2660 nM | 99.44% | 101.21% | 94% | 94.8%
14 | Cc1ccc(CN2COc3cc(C)c4c(oc(=O)c5ccccc54)c3C2)cc1 [NCGC00116336-01] | 94.2% | 106% | 96.8% | 71.6% | 78.2% | 92.4% | 1330 nM | 104.57% | 104.67% | 101% | 105%
15 | COc1ccc(-c2cc(=O)oc3c4c(ccc23)OCN(Cc2ccccc2)C4)cc1 [NCGC00116344-01] | 71.5% | 126% | 103% | 62.6% | 101% | 76.9% | 2990 nM | 95.59% | 97.26% | 98.2% | 101%
16 | COc1ccccc1CN1COc2ccc3c(oc(=O)c4ccccc43)c2C1 [NCGC00116378-01] | 85.6% | 85.1% | 110% | 73.3% | 86.8% | 88.1% | 2110 nM | 104.93% | 105.29% | 106% | 108%
17 | Cn1nnnc1SCCCNCc1cccc(OCc2ccccc2)c1 [NCGC00117957-01] | 78.6% | 108% | 127% | 58.9% | 94% | 87.5% | 9440 nM | 101.95% | 103.35% | 97.9% | 101%
18 | Cc1ccccc1CC(=O)NCc1nnc2cc(-c3nc(C4CC4)no3)ccn12 [NCGC00457761-01] | 130% | 129% | 103% | 86.9% | 122% | 133% | – | 102.90% | 101.49% | 109% | 107%
